Test results from ChEMBL document CHEMBL5233291, “Calamene-Type Sesqui-, Mero-, and Bis-sesquiterpenoids from Cultures of Heimiomyces sp., a Basidiomycete Collected in Africa” (J Nat Prod, 2023).
The source made the active and inactive calls.

Experiments:
Format in all cases: functional, organism-based
Candida albicans = experiment: Antifungal activity against Candida albicans DSM 1665 assessed as inhibition of fungal growth incubated for overnight by serial dilution assay
Mucor hiemalis = experiment: Antifungal activity against Mucor hiemalis DSM 2656 assessed as inhibition of fungal growth incubated for overnight by serial dilution assay
Rhodotorula glutinis = experiment: Antifungal activity against Rhodotorula glutinis DSM 10134 assessed as inhibition of fungal growth incubated for overnight by serial dilution assay
[1] = system: Schizosaccharomyces pombe; experiment: Antifungal activity against Schizosaccharomyces pombe DSM 70572 assessed as inhibition of fungal growth incubated for overnight by serial dilution assay
Wickerhamomyces anomalus = experiment: Antifungal activity against Pichia anomala DSM 6766 assessed as inhibition of fungal growth incubated for overnight by serial dilution assay
Escherichia coli = experiment: Antibacterial activity against Escherichia coli DSM 1116 assessed as inhibition of bacterial growth incubated for overnight by serial dilution assay
[2] = system: Mycolicibacterium smegmatis; experiment: Antibacterial activity against Mycobacterium smegmatis ATCC 700084 assessed as inhibition of bacterial growth incubated for overnight by serial dilution assay
Pseudomonas aeruginosa = experiment: Antibacterial activity against Pseudomonas aeruginosa DSM PA14 assessed as inhibition of bacterial growth incubated for overnight by serial dilution assay
[3] = system: Chromobacterium violaceum; experiment: Antibacterial activity against Chromobacterium violaceum DSM 30191 assessed as inhibition of bacterial growth incubated for overnight by serial dilution assay
Acinetobacter baumannii = experiment: Antibacterial activity against Acinetobacter baumannii […] DSM 30008 assessed as inhibition of bacterial growth incubated for overnight by serial dilution assay
Bacillus subtilis = experiment: Antibacterial activity against Bacillus subtilis DSM 10 assessed as inhibition of bacterial growth incubated for overnight by serial dilution assay
Staphylococcus aureus = experiment: Antibacterial activity against Staphylococcus aureus DSM 346 assessed as inhibition of bacterial growth incubated for overnight by serial dilution assay

Measured: Activity

CC(C)[C@H]1CC[C@H](C)c2c(O)c(O)c(C=O)c(C3=C(O)C(=O)C=C(O)C3=O)c21
inactive: all assays above

CC(C)[C@H]1CC[C@H](C)c2c(O)c(O)c3c(c21)C1=C(OC3)C(=O)C2=C(OCc3c(O)c(O)c4c(c32)[C@@H](C(C)C)CC[C@@H]4C)C1=O
inactive: all assays above

CC(C)[C@H]1CC[C@H](C)c2c(O)c(O)c(CO)c(C3=C(O)C(=O)C4=C(OCc5c(O)c(O)c6c(c54)[C@@H](C(C)C)CC[C@@H]6C)C3=O)c21
inactive: all assays above

O=c1cc(O)cc(C2c3c(cc(/C=C/c4ccc(O)c(O)c4)oc3=O)OC2c2ccc(O)c(O)c2)o1 (stereo not given)
inactive: all assays above

Cc1c(O)c(O)c(C(C)C)c2c1CCC(C(=O)O)=C2
inactive: all assays above

CC(C)[C@H]1CC[C@H](C)C2=C1C=C(C(=O)O)CC2
inactive: all assays above

CC(C)[C@H]1CC[C@H](C)c2c(O)c(O)c(C=O)c(C3=C(O)C(=O)C4=C(OCc5c(O)c(O)c6c(c54)[C@@H](C(C)C)CC[C@@H]6C)C3=O)c21
inactive: all assays above

O=c1cc(O)cc(/C=C/c2ccc(O)c(O)c2)o1
inactive: all assays above

CC1=C(O)C(=O)C(c2c(C=O)c(O)c(O)c3c2[C@@H](C(C)C)CC[C@@H]3C)=C(O)C1=O
inactive: all assays above

CC(C)[C@H]1CC[C@H](C)c2c(O)c(O)c(C=O)c(C3=C(O)C(=O)C(c4c(C=O)c(O)c(O)c5c4[C@@H](C(C)C)CC[C@@H]5C)=C(O)C3=O)c21
inactive: all assays above
